“And” between values parts separate entries of the source, which are not always exact repeats. Equal values may be shown once.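 A five-concentration, 48-hour dose response in 96-well plates underlies each endpoint, interpolated linearly between surrounding concentrations. GI50 marks 50% less growth. TGI denotes the concentration required for complete inhibition of growth.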
What was measured:
Assay in all cases: NCI anticancer screen, dose series, 48 h
[1] = test system: UACC-62 melanoma
[2] = test system: LOX IMVI melanoma
[3] = test system: SK-MEL-28 melanoma
[4] = test system: HCT-15 colon
[5] = test system: KM20L2 colon
[6] = test system: HL-60(TB) leukemia
[7] = test system: M19-MEL melanoma
[8] = test system: SF-539 CNS
[9] = test system: SR leukemia
[10] = test system: T-47D breast

CC(=O)[CH-]C(=O)c1ccccc1.CC(=O)[CH-]C(=O)c1ccccc1.C[C@]12CCC(=O)C=C1CC[C@@H]1C2CC[C@@]2(C)C1CC[C@@H]2[O-].C[C@]12CCC(=O)C=C1CC[C@@H]1C2CC[C@@]2(C)C1CC[C@@H]2[O-].Cl.[Ti+4] (stereo partly drawn)
GI50 [1]: 6.67 µM
TGI [1]: 33.8 µM
GI50 [2]: 16.9 µM
TGI [2]: 38.8 µM
GI50 [3]: 32.9 µM
TGI [3]: > 100 µM
GI50 [4]: 15.2 µM
TGI [4]: 43 µM
GI50 [5]: 13.1 µM
TGI [5]: 34.1 µM
GI50 [6]: 8.82 µM
TGI [6]: 69.1 µM
GI50 [7]: 23.7 µM
TGI [7]: 96.9 µM

Cc1ccccc1-n1c2nc(=O)n(C)c(=O)c-2nc2ccccc21
TGI [1]: 9.78 µM
TGI [2]: 39.7 µM
TGI [4]: 24.3 µM
TGI [5]: 21.9 µM
TGI [6]: 35.8 µM
TGI [7]: 3.84 µM
TGI [8]: 29.2 µM

Cc1ccc(NC(=O)/C(Cl)=C(/Cl)C(=O)O)cc1
TGI [1]: 29.7 µM
TGI [2]: 30.9 µM
TGI [9]: 53.6 µM
TGI [3]: 33 µM
TGI [4]: 28.9 µM
TGI [5]: 40.3 µM
TGI [6]: 4.36 µM
TGI [7]: 29.5 µM

NCCNCc1c2ccccc2c(CNCCN)c2ccccc12
TGI [1]: 53.5 µM
TGI [9]: > 100 µM
TGI [4]: > 100 µM
TGI [5]: 74.1 µM
TGI [6]: 58.6 µM
TGI [7]: 84.4 µM
TGI [8]: 29.5 µM

O=C1CCSC2=C1SCc1sccc12
TGI [1]: > 100 µM
TGI [2]: > 100 µM
TGI [3]: > 100 µM
TGI [4]: > 100 µM
TGI [5]: > 100 µM
TGI [6]: > 100 µM
TGI [7]: > 100 µM

CC(=O)OC12COC1CC(O)C1(C)C(=O)C(O)C3=C(C)C(O)CC(O)(C(OC(=O)c4ccccc4)C21)C3(C)C (stereo not drawn)
TGI [1]: > 100 µM
TGI [10]: > 100 µM
TGI [2]: > 100 µM
TGI [9]: > 100 µM
TGI [3]: > 100 µM
TGI [4]: > 100 µM
TGI [5]: 5.42 µM
TGI [6]: 24.3 µM
TGI [7]: > 100 µM
TGI [8]: 5.51 µM

CN1CCN(C)C12C=CC=CC21CC1
TGI [1]: > 100 µM
TGI [2]: > 100 µM
TGI [9]: > 100 µM
TGI [4]: > 100 µM
TGI [5]: > 100 µM
TGI [6]: > 100 µM
TGI [7]: > 100 µM
TGI [8]: > 100 µM

CC#CC1C2CCCC1(CSc1ccccc1)NC(=O)O2 (stereo not drawn)
TGI [1]: > 100 µM
TGI [9]: > 100 µM
TGI [4]: > 100 µM
TGI [5]: > 100 µM
TGI [6]: > 100 µM
TGI [7]: > 100 µM
TGI [8]: > 100 µM

CC1=CC(N2C(=O)C(C)=CC2O)NC1=O (stereo not drawn)
TGI [2]: > 100 µM
TGI [9]: > 100 µM
TGI [3]: > 100 µM
TGI [5]: > 100 µM
TGI [6]: > 100 µM
TGI [7]: > 100 µM
TGI [8]: > 100 µM

c1ccc2c(c1)N=C(c1cccc3ccccc13)CC(c1ccc3c(c1)OCO3)S2 (stereo not drawn)
TGI [1]: > 100 µM
TGI [2]: > 100 µM
TGI [9]: > 100 µM
TGI [5]: > 100 µM
TGI [6]: > 100 µM
TGI [7]: > 100 µM
TGI [8]: > 100 µM

C=C(C(=C)P(=S)(c1ccccc1)c1ccccc1)P(=S)(c1ccccc1)c1ccccc1
TGI [1]: > 100 µM
TGI [3]: > 100 µM
TGI [4]: > 100 µM
TGI [5]: > 100 µM
TGI [6]: > 100 µM
TGI [7]: > 100 µM
TGI [8]: > 100 µM

N/N=c1\c2ccccc2c2cc3c(cc12)/c(=N/N)c1ccccc13
TGI [1]: > 100 µM
TGI [9]: > 100 µM
TGI [3]: > 100 µM
TGI [4]: > 100 µM
TGI [5]: > 100 µM
TGI [6]: > 100 µM
TGI [7]: > 100 µM
TGI [8]: > 100 µM

OCc1c[te]c(-c2ccccc2)c1
TGI [1]: > 100 µM
TGI [3]: > 100 µM
TGI [4]: > 100 µM
TGI [5]: > 100 µM
TGI [6]: 45.1 µM
TGI [7]: > 100 µM
TGI [8]: 78.3 µM

Cc1ccc(S(=O)OCC23CC4CC(CC(C4)C2)C3)cc1 (stereo not drawn)
TGI [1]: > 100 µM
TGI [2]: > 100 µM
TGI [9]: > 100 µM
TGI [3]: > 100 µM
TGI [4]: > 100 µM
TGI [5]: > 100 µM
TGI [6]: > 100 µM
TGI [7]: > 100 µM
TGI [8]: > 100 µM

O=C(COC(=O)c1cccc2c(=O)c3ccccc3[nH]c12)Nc1ccc(C(=O)O)cc1
TGI [1]: > 100 µM
TGI [2]: > 10 µM
TGI [9]: > 100 µM
TGI [3]: > 100 µM
TGI [5]: > 100 µM
TGI [6]: > 100 µM
TGI [7]: > 100 µM
TGI [8]: > 100 µM

Cc1cc(C)nc(NS(=O)(=O)c2ccc(Nc3c4ccc(Cl)cc4nc4c(C(=O)NCCN(C)C)cccc34)cc2)n1
TGI [1]: > 100 µM
TGI [2]: > 100 µM
TGI [9]: > 100 µM
TGI [3]: > 100 µM
TGI [4]: > 100 µM
TGI [5]: > 100 µM
TGI [6]: > 100 µM
TGI [7]: > 100 µM
TGI [8]: > 100 µM

COC(=O)C(Cc1nc2ccccc2nc1C)/C(=N\NC(N)=O)C(=O)Nc1cccc([N+](=O)[O-])c1 (stereo not drawn)
TGI [1]: > 100 µM
TGI [2]: > 100 µM
TGI [9]: > 100 µM
TGI [3]: > 100 µM
TGI [4]: > 100 µM
TGI [5]: > 100 µM
TGI [6]: > 100 µM
TGI [7]: > 100 µM
TGI [8]: > 100 µM

COC(=O)C1=C(C(=O)OC)C2(C)Nc3ccccc3C2=C(c2ccccc2)C1 (stereo not drawn)
TGI [1]: 38.5 µM
TGI [2]: 55.7 µM
TGI [3]: 40.7 µM
TGI [4]: 51.8 µM
TGI [5]: 74.3 µM
TGI [6]: 41.5 µM
TGI [7]: 46 µM
TGI [8]: 37.5 µM

COc1ccc(C(=O)C(c2ccc(OCc3ccccc3)cc2)c2ccc(OCc3ccccc3)cc2)cc1
TGI [1]: > 100 µM
TGI [2]: > 100 µM
TGI [9]: > 100 µM
TGI [3]: > 100 µM
TGI [4]: > 100 µM
TGI [5]: > 100 µM
TGI [6]: > 100 µM
TGI [7]: > 100 µM
TGI [8]: > 100 µM

COc1ccc(C2C(C)C(=O)C(C)C(c3ccc(OC)cc3)N2N=O)cc1 (stereo not drawn)
GI50 [1]: > 750 µM
TGI [1]: > 750 µM
TGI [10]: 713 µM
GI50 [2]: > 750 µM
TGI [2]: > 1000 µM
TGI [9]: > 1000 µM
GI50 [3]: > 750 µM
TGI [3]: > 1000 µM
GI50 [4]: > 750 µM
TGI [4]: > 1000 µM
TGI [5]: > 1000 µM
GI50 [6]: > 750 µM
TGI [6]: > 1000 µM
GI50 [7]: > 1000 µM
TGI [7]: > 1000 µM
GI50 [8]: 18 µM and 41.3 µM
TGI [8]: 46.8 µM and 341 µM and 222 µM

— PubChem BioAssay (NCI)
